# Measurements as given in patent publication EP0215701A1, “Esters of cyclopropanecarboxylic acids and 2,3-dihydro-4-phenyl-1H-inden-2-ol, their preparation, their use as parasiticides and compositions containing them” (ROUSSEL-UCLAF, priority 1985, dated 1987).
# Tested on: Tétranychus urticae
# Assay: Adulticide test on Tétranychus urticae (treated bean plants)
# Format: in vivo
# Conditions: bean plants sprayed at different doses, infested with 25 females per leaf, 22-23°C, 60-65% relative humidity; live and dead mites counted 24 h and 48 h after treatment
# From the text: On utilise des plants de haricots comportant deux feuilles qui sont traitées au pistolet Fisher à différentes doses des produits à tester. Après séchage, ces plants sont infestés à raison de 25 femelles de Tétranychus urticae par feuille et maintenus à 22-23◊C, 60 - 65% d'humidité relative. Les dénombrements des acariens vivants et morts sont effectués 24 heures et 48 heures après traitement.
structure (smiles),measurement,value
"CC(C)(C)OC(=O)/C(F)=C\[C@H]1[C@@H](C(=O)OC2Cc3cccc(-c4ccccc4)c3C2)C1(C)C (stereo partly drawn) [Exemple 4, /1R-/1α,3α (E)/ 3-(3-terbutoxy-3-oxo-2-fluoro-1-propényl) -2,2-diméthyl cyclopropane carboxylatede 2,3-dihydro-4-phényl-1H-inden-2-yle]",CL 50,173 mg/hl
